“Also recorded” adds a separate entry of the source.
Assays:
MED1 condensates [1] = target: T1, MED1 condensates (Homo sapiens, UniProt Q15648); experiment: FRAP of in vitro droplets with drug; assay type: binding; conditions: 5 μM TR-cisplatin, 10 μM protein, 125 mM NaCl, 10% PEG
T1 construct: MED1—amino acids 600-1581; 6xHis (N); made in house; host or cells: LOBSTR cells (E. coli)
Protocol: For FRAP of in vitro droplets, 5 pulses of laser at a 50 us dwell time was applied to the MED1 channel and 20 pulses of laser at a 100 μs dwell time was applied to the Cisplatin channel. Recovery was imaged on an Andor microscope every 1 s for the indicated time periods. Fluorescence intensity was measured using FIJI. Post bleach FRAP recovery data was averaged over 6 replicates for each channel.

MED1 condensates [2] = target: T1, MED1 condensates; experiment: Determination of partitioning by spectrophotometry and quantitative phase microscopy; assay type: binding
Description: Here, an expression is derived briefly for the partition coefficient of a client molecule into a condensed phase in terms of quantities that are readily measurable experimentally. A sample composed of two coexisting phases is considered, named dilute and condensed, with volume fractions ϕdilute and […]. If a client molecule (e.g. a drug) is also present in the sample at an average concentration of ctotal, then mass conservation requires that
the ratio is estimated ctotal/cdilute from fluorescence spectroscopy measurements, as described in a subsequent section, while ϕcond, it is inferred from the lever rule (M. Rubinstein, R. H. Colby, Polymer Phyics (Oxford University Press, 2003) as follows: denoting the concentration of scaffold protein (e.g. MED1) by s, mass conservation gives stotal=sdiluteϕdilute+scondϕcond, in analogy with Eq. 1. Again using the requirement that the volume fractions of coexisting phases sum to 1, this can be rearranged to yield
where stotal and sdilute are measured spectrophotometrically from optical absorbance at 280 nm, and scond is measured from quantitative phase microscopy, using a coherence-controlled holographic microscope (Q-Phase, Telight (formerly TESCAN), Bmo, CZ) equipped with 40× dry objectives (NA=0.90). […]
where A is the measured absorbance (in Absorbance Units (AU)), I0 is the intensity of the incident light at a given wavelength, I is the transmitted intensity, L the path length through the sample, and c the concentration of the absorbing species. […] The partitioned drug was measured by using spin down assay. […] The supernatant was collected and measured the concentrations of the drug. The partitioned drug was calculated by subtracting from the total known concentration of drug added.
Quantitative phase measurements were performed using a coherence-controlled holographic microscope (Q-Phase, Telight (formerly TESCAN), Brno, CZ) equipped with 40× dry objectives (NA=0.90) as follows. […]
Q-PHASE software was used to construct compensated phase images from acquired holograms, which were subsequently analyzed in MATLAB using custom code. […]

[3] = test system: nuclear condensates in HCT116 cells; experiment: Cisplatin treatment followed by live cell imaging, condensate score; assay type: cell-based, human; conditions: HCT116, 50 μM cisplatin, up to 12 hours
Protocol: HCT116 cells with the indicated GFP knock-in were plated at 35 k per well of a glass bottom 8-well chamber slide. Following incubation at 37° C. overnight, cells were treated with 50 uM cisplatin in DMEM or a 1:1000 dilution of DMSO for 12 hours. […] For representative images of each of the six tagged lines treated with vehicle or 50 μM cisplatin, cells were imaged on the Zeiss LSM 880 confocal microscope with Airyscan detector with 63× objective at 37° C. Nuclei were segmented from images of treated cells by custom Python scripts using the scikit-image, open-cv, and […] Python packages. Nuclei were segmented by median filter, thresholding, separated by the watershed algorithm, and labeled by the scikit-image label function. […] A grey-level co-occurrence matrix (GLCM) was then generated from the projected signal, and the 'correlation' texture property from the GLCM was calculated per nucleus. One-way ANOVA followed by Sidak's multiple comparisons test was performed on the correlation values across conditions using GraphPad Prism version 8.2.0 for Mac (www.graphpad.com). Finally, to derive the condensation score, these values were subtracted from 1.

MED1 = target: T2, MED1 (Homo sapiens, UniProt Q15648); experiment: In vitro droplet assay, small molecule partitioning into MED1 condensates; assay type: binding; conditions: confocal fluorescence; Example 2: 125 mM NaCl, 10% PEG, 10 μM protein; fluorescent or fluorescently labeled drug
T2 construct: MED1—amino acids 600-1581; 6xHis (N); made in house; host or cells: LOBSTR cells (E. coli)
T2 sequence (Q15648 600-1581): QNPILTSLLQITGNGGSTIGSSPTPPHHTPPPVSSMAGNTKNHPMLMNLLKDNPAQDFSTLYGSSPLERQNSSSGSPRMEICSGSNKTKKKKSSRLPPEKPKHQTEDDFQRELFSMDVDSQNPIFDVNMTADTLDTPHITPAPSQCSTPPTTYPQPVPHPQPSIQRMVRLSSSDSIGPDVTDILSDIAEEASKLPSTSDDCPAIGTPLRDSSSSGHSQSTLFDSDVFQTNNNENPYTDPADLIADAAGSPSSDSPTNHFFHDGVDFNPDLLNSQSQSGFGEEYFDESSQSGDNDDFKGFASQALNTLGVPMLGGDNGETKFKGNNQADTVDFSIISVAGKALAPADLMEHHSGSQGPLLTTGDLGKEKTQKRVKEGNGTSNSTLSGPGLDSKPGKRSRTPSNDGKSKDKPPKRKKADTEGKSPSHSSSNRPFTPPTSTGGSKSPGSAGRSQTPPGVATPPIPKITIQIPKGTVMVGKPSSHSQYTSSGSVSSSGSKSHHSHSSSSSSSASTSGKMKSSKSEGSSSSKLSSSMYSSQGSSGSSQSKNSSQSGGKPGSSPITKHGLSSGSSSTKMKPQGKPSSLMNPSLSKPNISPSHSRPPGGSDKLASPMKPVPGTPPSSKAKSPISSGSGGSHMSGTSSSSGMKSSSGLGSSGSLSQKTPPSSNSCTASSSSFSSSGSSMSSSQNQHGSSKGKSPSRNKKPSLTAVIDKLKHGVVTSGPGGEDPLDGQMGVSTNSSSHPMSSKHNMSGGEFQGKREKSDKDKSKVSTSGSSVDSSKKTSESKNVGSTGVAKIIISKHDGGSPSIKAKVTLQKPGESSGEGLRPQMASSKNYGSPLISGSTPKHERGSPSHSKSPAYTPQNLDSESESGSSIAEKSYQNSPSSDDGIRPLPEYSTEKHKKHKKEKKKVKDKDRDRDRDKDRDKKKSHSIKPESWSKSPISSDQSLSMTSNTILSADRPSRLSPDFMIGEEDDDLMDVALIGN
Protocol: Recombinant BFP, GFP, or mCherry fusion proteins were concentrated and desalted to an appropriate protein concentration and 125 mM NaCl using Amicon Ultra centrifugal filters (30K MWCO, Millipore). Recombinant protein was added too. […] The protein solution was immediately loaded onto glass bottom 384 well plate (Cellvis P384-1.5H-N) and imaged with an Andor confocal microscope with a 150× objective. Unless indicated, images presented are of droplets settled on the glass coverslip.
Drug and small molecule concentrations used in the droplet experiments are as follows:
To analyze in vitro droplet experiments, custom Python scripts using the scikit-image package were written to identify droplets and characterize their size, shape and intensity. Droplets were segmented from average images of captured channels on various criteria: (1) an intensity threshold that was three s.d. above the mean of the image; (2) size thresholds (20 pixel minimum droplet size); and (3) a minimum circularity (circularity=4π·areaperimeter2) (circularity=4π·areaperimeter2) of 0.8 (1 being a perfect circle). After segmentation, mean intensity for each droplet was calculated while excluding pixels near the phase interface, and background-corrected by subtracting intensity of dark images of droplet formation buffer only. Droplets identified in the channel of the fluorescent protein from ten independent fields of view were quantified for each experiment. The maximum intensity of signal within the droplets was calculated for each channel, the maximum intensity in the drug channel was termed “maximum drug intensity”. To obtain the intensity of drug or dye alone in the diffuse state (termed “diffuse drug intensity”), the compound was added to droplet formation buffer at same concentration used in the droplet assay. This was then imaged on a confocal fluorescent microscope. The resulting image was processed in FIJI to obtain the fluorescent intensity of the field. To obtain the fluorescent intensity of protein droplets that bleed through in the drug channel (termed “background intensity”) protein droplets were imaged in the fluorescent channel in which the drug fluoresces and processed as above to obtain the average maximum intensity within the droplet across 10 images. The enrichment ratio was obtained by the following formula [(maximum drug intensity)−(background intensity)]/(diffuse drug intensity). The box plots show the distributions of all droplets. Each dot represents an individual droplet.

T1 sequence (Q15648 600-1581): as above

N.N.[Cl][Pt][Cl] [cisplatin] was tested. Which “mobility in MED1 droplets (FRAP)” value (MED1 condensates [1]) did it give?
Its value is “highly mobile”.

And the “partition coefficient in MED1 droplets” value (MED1 condensates [2])?
Its value is “up to 600”.

What about the “partition ratio in MED1 condensates” value (MED1 condensates [2]; uv spectroscopy of drug remaining in solution plus condensate volume estimate) of the same molecule?
Its value is “up to 600 fold”.

And the “effect on nuclear condensates in live cells” value [3]?
The value was “selective and progressive reduction in MED1 condensates; also recorded: Dissolution of MED1 condensates”.

What about the “effect on nuclear condensates in live cells” value ([3]; listed as Cisplatin) of the same molecule?
Its value is “specifically disrupts MED1 and BRD4 condensates”.

And the “partitioning / incorporation into MED1 droplets” value (MED1)?
Its value is “selectively concentrated in MED1 droplets”.

Source: US20220390432A1, “METHODS OF CHARACTERIZING AND UTILIZING AGENT-CONDENSATE INTERACTIONS” (Whitehead Institute for Biomedical Research, priority 2019, published 2022)
